Experimental findings from PubChem BioAssay AID1259411 (Chemical Carcinogenesis Research Information System (CCRIS), 2018) are described below.

Structures are written as SMILES. Activity calls are given as the source filed them. The rule behind the calls is not given here.

The test system of this data set is rodent carcinogenicity bioassays, tumor incidence. The data set can be described thus: CCRIS carcinogenicity studies. A digest of the protocol: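 Archive of carcinogenicity, mutagenicity, tumor promotion and tumor inhibition results drawn from journals, NCI reports and other sources, expert-reviewed; covers 1985-2011 and is no longer updated.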

With `COc1ccc(CCN2CCC(Nc3nc4ccccc4n3Cc3ccc(F)cc3)CC2)cc1`, the carcinogen call (Species: MOUSE, Strain/Sex: SWISS/FEMALE, Route: ORAL, Dose: 0, 2.5, 10, 40 MG/100 G OF DIET FOR DURATION OF STUDY (STUDY DURATION: 18 Mo), Dose: 0, 2.5, 10, 40 MG/100 G OF DIET FOR DURATION OF STUDY (STUDY DURATION: 18 Mo)) is “inactive; negative”; the carcinogen call (Species: MOUSE, Strain/Sex: SWISS/MALE, Route: ORAL, Dose: 0, 2.5, 10, 40 MG/100 G OF DIET FOR DURATION OF STUDY (STUDY DURATION: 18 MO), Dose: 0, 2.5, 10, 40 MG/100 G OF DIET FOR DURATION OF STUDY (STUDY DURATION: 18 MO)) is “inactive; negative”; the carcinogen call (Species: RAT, Strain/Sex: WISTAR/FEMALE, Route: ORAL, Dose: 0, 5, 20, 80 MG/100 G OF DIET FOR DURATION OF STUDY (STUDY DURATION: 2 YR), Dose: 0, 5, 20, 80 MG/100 G OF DIET FOR DURATION OF STUDY (STUDY DURATION: 2 YR)) was “inactive; negative”; the carcinogen call (Species: RAT, Strain/Sex: WISTAR/MALE, Route: ORAL, Dose: 0, 5, 20, 80 MG/100 G OF DIET FOR DURATION OF STUDY (STUDY DURATION: 2 YR), Dose: 0, 5, 20, 80 MG/100 G OF DIET FOR DURATION OF STUDY (STUDY DURATION: 2 YR)) is “inactive; negative”.

As to `O=c1[nH]c(=O)n(C2CCCO2)cc1F` (stereo not drawn), the carcinogen call (Species: MOUSE, Strain/Sex: C57BL/CBA/FEMALE, Route: GAVAGE, Dose: 0, 40 MG/KG IN 0.2 ML OF A STARCH/WATER SUSPENSION 2/WK FOR 12 MO (STUDY DURATION: LIFETIME)) is “inactive; negative”; the carcinogen call (Species: MOUSE, Strain/Sex: C57BL/CBA/MALE, Route: GAVAGE, Dose: 0, 40 MG/KG IN 0.2 ML OF A STARCH/WATER SUSPENSION 2/WK FOR 12 MO (STUDY DURATION: LIFETIME)) is “inactive; negative”; the carcinogen call (Species: RAT, Strain/Sex: WISTAR/FEMALE, Route: GAVAGE, Dose: 0, 60 MG/KG IN 0.5 ML OF A STARCH/WATER SUSPENSION 2/WK FOR 12 MO (STUDY DURATION: LIFETIME)) was “inactive; negative”; the carcinogen call (Species: RAT, Strain/Sex: WISTAR/MALE, Route: GAVAGE, Dose: 0, 60 MG/KG IN 0.5 ML OF A STARCH/WATER SUSPENSION 2/WK FOR 12 MO (STUDY DURATION: LIFETIME)) was “inactive; negative”.

With `O=[N+]([O-])c1ccc(/C=C/c2cnc(N(CO)CO)nn2)o1`, the carcinogen call (Species: RAT, Strain/Sex: WISTAR/MALE, Route: ORAL, Dose: 0, 350, 1750, 3500 PPM IN POWDERED BASAL DIET (STUDY DURATION: 35 WK), Dose: 0, 350, 1750, 3500 PPM IN POWDERED BASAL DIET (STUDY DURATION: 35 WK), Tumor Site: Type of Lesion: FORESTOMACH, SQUAMOUS CELL PAPILLOMA, DUODENUM: ADENOCARCINOMA, SMALL INTESTINE: ADENOCARCINOMA, Tumor Site: Type of Lesion: FORESTOMACH, SQUAMOUS CELL PAPILLOMA, DUODENUM: ADENOCARCINOMA, SMALL INTESTINE: ADENOCARCINOMA) was “active; positive”.

Take `O=C(O)CCC(=O)O`: the carcinogen call runs as follows: (Species: RAT, Strain/Sex: F344/FEMALE, Route: ORAL, Dose: 0, 1, 2% IN DRINKING WATER FOR 2 YR (STUDY DURATION: 2 YR), Dose: 0, 1, 2% IN DRINKING WATER FOR 2 YR (STUDY DURATION: 2 YR)) “inactive; negative”; (Species: RAT, Strain/Sex: F344/MALE, Route: ORAL, Dose: 0, 1, 2% IN DRINKING WATER FOR 2 YR (STUDY DURATION: 2 YR), Dose: 0, 1, 2% IN DRINKING WATER FOR 2 YR (STUDY DURATION: 2 YR)) “inactive; negative”.

`C/C(=C(\CCOC(=O)c1ccccc1)SC(=O)c1ccccc1)N(C=O)Cc1cnc(C)nc1N`: the carcinogen call is “inactive; negative” (Species: RAT, Strain/Sex: SPRAGUE-DAWLEY/FEMALE, Route: ORAL, Dose: 0, 1000, 10000 PPM IN DIET FOR DURATION OF STUDY (STUDY DURATION: 105 WK), Dose: 0, 1000, 10000 PPM IN DIET FOR DURATION OF STUDY (STUDY DURATION: 105 WK)) and “inactive; negative” (Species: RAT, Strain/Sex: SPRAGUE-DAWLEY/MALE, Route: ORAL, Dose: 0, 1000, 10000 PPM IN DIET FOR DURATION OF STUDY (STUDY DURATION: 105 WK), Dose: 0, 1000, 10000 PPM IN DIET FOR DURATION OF STUDY (STUDY DURATION: 105 WK)).

As for `Nc1ccc(Nc2ccccc2)cc1`, the carcinogen call was “inactive; negative” (Species: MOUSE, Strain/Sex: B6C3F1/FEMALE, Route: ORAL, Dose: 0, 3672, 8170 PPM IN DIET, TWA, Dose: 0, 3672, 8170 PPM IN DIET, TWA); “inactive; negative” (Species: MOUSE, Strain/Sex: B6C3F1/MALE, Route: ORAL, Dose: 0, 2057, 4114 PPM IN DIET, TWA, Dose: 0, 2057, 4114 PPM IN DIET, TWA); “inactive; negative” (Species: RAT, Strain/Sex: F344/FEMALE, Route: ORAL, Dose: 0, 600, 1200 PPM IN DIET, Dose: 0, 600, 1200 PPM IN DIET); “inactive; negative” (Species: RAT, Strain/Sex: F344/MALE, Route: ORAL, Dose: 0, 600, 1200 PPM IN DIET, Dose: 0, 600, 1200 PPM IN DIET).

Turning to `Cc1cc2c(c3ccc4ccccc4c13)C=C[C@@H](O)[C@@H]2O`, the carcinogen call runs as follows: (Species: MOUSE, Strain/Sex: ICR/FEMALE, Route: INTRAPERITONEAL, Dose: 8 NMOL/5 µL DMSO ON DAY 1, 16 NMOL/10 µL ON DAY 8, AND 32 NMOL/20 µL ON DAY 15 OF AGE (STUDY DURATION: 35 WK), Tumor Site: Type of Lesion: LUNG: TUMORS, LIVER: TUMORS) “active; positive”; (Species: MOUSE, Strain/Sex: ICR/MALE, Route: INTRAPERITONEAL, Dose: 8 NMOL/5 µL DMSO ON DAY 1, 16 NMOL/10 µL ON DAY 8, AND 32 NMOL/20 µL ON DAY 15 OF AGE (STUDY DURATION: 35 WK), Tumor Site: Type of Lesion: LUNG: TUMORS) “active; positive”.

For `CN(CC(O)CO)N=O` (stereo not drawn), the carcinogen call (Species: HAMSTER, Strain/Sex: SYRIAN/FEMALE, Route: GAVAGE, Dose: 0, 2.4 MG IN 0.2 ML OF WATER 1/WK FOR 41 WK FOR A TOTAL DOSE OF 98 MG (STUDY DURATION: 45 WK), Tumor Site: Type of Lesion: NASAL MUCOSA: CARCINOMA, ADENOMA) was “active; positive”.

`CC(=O)Nc1nc(-c2ccc([N+](=O)[O-])o2)cs1`: the carcinogen call by setting is: (Species: HAMSTER, Route: ORAL, Tumor Site: Type of Lesion: FORESTOMACH, URINARY BLADDER) “active; positive”; (Species: MOUSE, Route: ORAL, Tumor Site: Type of Lesion: FORESTOMACH, HEMATOPOIETIC SYSTEM (LEUKEMIA), LYMPHATIC SYSTEM: LYMPHATIC LEUKEMIA, Tumor Site: Type of Lesion: FORESTOMACH, HEMATOPOIETIC SYSTEM (LEUKEMIA), LYMPHATIC SYSTEM: LYMPHATIC LEUKEMIA) “active; positive”; (Species: RAT, Route: ORAL, Tumor Site: Type of Lesion: MAMMARY GLAND, LUNG, SALIVARY GLAND, Tumor Site: Type of Lesion: MAMMARY GLAND, LUNG, SALIVARY GLAND) “active; positive”.
